Data on ten compounds can be found in US10653694B2, “Cytotoxic compounds which are inhibitors of the polymerisation of tubulin” (CENTRE NATIONAL DE LA RECHERCHE SCIENTIFIQUE (CNRS), priority 2014, dated 2020).

The test system of series [1] is tubulin. Briefly: Inhibition of polymerisation of tubulin (IPT). It counts as biochemical, sheep. From the text:
(§1) Brown oil, 89%. Rf 0.3 (Cyclohexane/EtOAc, 7/3). IR (neat, cm^−1): 1609, 1593, 1564, 1428, 1205, 1157. ^1H NMR (300 MHz, CDCl3): 8.08 (d, 1H, J=8.2 Hz), 7.90 (d, 1H, J=8.4 Hz), 7.77-7.72 (ddd, 1H, J=8.2 Hz, J=6.9 Hz, J=1.3 Hz), 7.44 (ddd, 1H, J=8.3 Hz, J=7.0 Hz, J=1.0 Hz), 6.49 (d, 2H, J=2.2 Hz), 6.27 (t, 1H, J=2.2 Hz), 4.90 (q, 1H, J=6.9 Hz), 3.73 (s, 6H), 2.91 (s, 3H), 1.78 (d, 3H, J=6.9 Hz). ^13C NMR (75 MHz, CDCl3): 171.8, 163.8, 161.0 (2C), 150.7, 146.9, 133.2, 128.5, 126.6, 124.7, 121.6, 106.2 (2C), 98.0, 55.4 (2C), 43.4, 26.9, 21.1. m/z MS (APCI^+): 309 (M+H)^+. Cytotoxicity Protocol. U87, H1299 and MDA-MB231 cells are grown in Dulbecco minimal essential medium (DMEM) containing 4.5 g/L glucose and supplemented with 10% foetal calf serum and 1% glutamine. K562 and HCT116 cells are grown in RPMI 1640 medium containing 10% foetal calf serum and 1% glutamine. All the cell lines are maintained in culture at 37° C. in a humid atmosphere containing 5% CO2. The cells are inoculated in 96-well culture plates in an amount of 5000 cells per well in 50 μL of culture medium. After 24 hours of culture, the molecule to be tested, dissolved in DMSO and diluted 1/1000 in suitable culture medium, is added in each well in an amount of 50 μL per well. After 72 hours of incubation, 20 μL of resazurin is added in each well. After 1 hour of incubation, emitted fluorescence is measured at 590 nm after excitation at 560 nm using the Victor fluorescence reader (Perkin-Elmer, USA). Each concentration is tested three times and each experiment is repeated three times. Protocol for Inhibition of Polymerisation of Tubulin. When tubulin is placed at a temperature of 0° C., it is in the form of free dimers. […] The IPT of the various synthesized analogues was determined on a soluble tubulin according to the method of Shelanski^7 from sheep brains where it constitutes 20 to 25% of soluble proteins. The “antitubulin” activity is evaluated according to the method of Gaskin^8 by measuring turbidity, which is proportional to the microtubule concentration in the suspension. Turbidity is measured by absorption of the suspension at 350 nm using a spectrophotometer fitted with a cell thermostatically-controlled at 37° C. The various samples were dissolved in DMSO and incubated 10 minutes at 37° C. then 5 minutes at 0° C. The tubulin assembly and disassembly curves are obtained by absorption kinetics at 350 nm as a function of time. The IC50 determined graphically is defined as the concentration of inhibitor necessary to decrease by 50% the maximum rate of assembly of the control tubulin. In Vitro Biological Study of Compounds of the Present Invention
The most cytotoxic compounds were selected for tests of inhibition of polymerisation of tubulin. These tests were carried out under the direction of Dr J. Dubois at Gif-sur-Yvette, France. Tubulin is purified from ewe brains according to the method of Shelanski^9 by two assembly-disassembly cycles. The stock solution (15-20 mg/mL), stored at −196° C., is thawed and diluted in assembly buffer (0.1 M MES, 0.5 mM MgCl2, 1 mM EGTA, and 1 mM GTP, pH 6.6) to have a final concentration of 10 μM. Tubulin assembly is monitored by fluorescence on 96-well plates according to the method of Barron et al.^10 Inhibitor (DMSO, 1 μL) is added to the tubulin solution (10 μM, 100 μL per well) and the solution is incubated 45 minutes at room temperature. GTP (1 mM final) is then added, the solution is mixed rapidly and fluorescence (λex=350 nm, λem=440 nm) is measured on a Wallac Victor fluorometer (Perkin Elmer). The inhibition of 50% of the maximum rate of assembly (IC50) is determined in duplicate or triplicate on 10 concentrations bracketing the IC50.

The subject of series [2] is K562 (chronic myeloid leukaemia). Briefly: Cytotoxicity on K562 line (resazurin, 72 h). The series is classed as cell-based. Particulars: Homo sapiens.
Description: as §1
(§2) Compounds I-15, I-16 and I-19 were also evaluated on a K562 chronic myeloid leukaemia line and a K562R imatinib-resistant chronic myeloid leukaemia line.

The test system of series [3] is HCT116 human cancer cell line (colorectal cancer). Put plainly: Cytotoxicity on HCT116 human cancer cell line (resazurin, 72 h). The following applies: Homo sapiens. It counts as cell-based.
Description: as §1
The cytotoxic activity of the compounds was studied in vitro principally on the HCT116 human cancer cell line (colorectal cancer). The line selected for this study was incubated at 37° C. in the presence of one of the compounds added in the culture medium at various concentrations. The inhibitory concentration inducing the death of 50% of the cells (IC50) was determined after 72 hours of incubation (Table 1) for each compound. The set of experiments carried out made it possible to determine the degree of toxicity of the compounds tested by taking isoCA-4 as the reference. […] Lastly, when these first results are examined, it appears that the reduction of the double bond located between the two aromatic nuclei yields “reduced” type II derivatives about 10 times less cytotoxic than their precursors I as we had already noted during the reduction of isoCA-4 derivatives to isoerianin-type derivatives.
(In general: Resazurin is reduced to fluorescent resorufin, in cell work by metabolically active cells.)

The subject of series [4] is H1299 (non-small-cell lung cancer). Put plainly: Cytotoxicity on H1299 line (resazurin, 72 h). It counts as cell-based. Particulars: Homo sapiens, NCI-H1299.
Description: as §1, §2

For series [5] the following is noted: in the presence of hepatocytes; cited from earlier work.
The mark [6] stands for this setting: Table 3, inhibition of 50% of the maximum rate of assembly, tubulin 10 μM, read-out: IPT (IC50).
[7] abbreviates: K562, Table 2, 50% cell death after 72 hours of incubation, read-out: K562 IC50.
Setting [8] is: HCT-116, 72 hours of incubation, read-out: IC50 (cytotoxicity, HCT116).
Setting [9] is: HCT-116, Table 1, concentration inducing 50% cell death after 72 hours of incubation, read-out: HCT116 IC50.
The mark [10] stands for this setting: Table 2, 50% cell death after 72 hours of incubation, read-out: H1299 IC50.

The structures appear in SMILES notation. Where two headings read alike, the source gives them in different places.

For the compound `C=C(c1ccc(OC)cc1)c1nc(C)nc2ccccc12` [Compound I-1, 4-[1-(4-Methoxy-phenyl)-vinyl]-2-methyl-quinazoline], the IC50 was 1800 nM in series [1] (setting [6]); 34 nM in series [2] (setting [7]); 22 to 38 nM in series [2] (range given jointly for K562 and H1299 lines, read-out: IC50 (cytotoxicity, K562)); 40 nM in series [3] (setting [8]); 38 nM in series [3] (setting [9]); 22 nM in series [4] (setting [10]). In addition, in series [4] (range given jointly for K562 and H1299 lines, read-out: IC50 (cytotoxicity, H1299)), the IC50 was 22 to 38 nM.

On to `C=C(c1ccc(OC)c(O)c1)c1nc(C)nc2ccccc12` [Compound I-6, 2-Methoxy-5-(1-(2-methylquinazolin-4-yl)vinyl)phenol], for which the IC50 in series [1] (read-out: IC50 (inhibition of polymerisation of tubulin)) was 600 nM; in series [3] (setting [8]), < 20 nM; in series [3] (setting [9]) it was 10 nM.

For `C=C(c1ccc(OC)c(OC)c1)c1nc(C)nc2ccccc12` [Compound I-2, 4-[1-(3,4-Dimethoxy-phenyl)-vinyl]-2-methyl-quinazoline], the IC50 in series [3] (setting [9]) was found to be 460 nM.

Regarding `COc1ccc(C(C)c2nc(C)nc3ccccc23)cc1OC` (stereo not drawn) [II-2, 4-[1-(3,4-Dimethoxy-phenyl)-ethyl]-2-methyl-quinazoline], the IC50 in series [3] (setting [9]) was 950 nM.

Regarding `C=C(c1ccc(OC)c(O)c1)c1cc(OC)c(OC)c(OC)c1` [isoCA-4, Isocombretastatin A-4, reference compound], the IC50 in series [1] (setting [6]) came to 1000 nM; in series [2] (setting [7]), 4 nM; in series [3] (HCT-116, 72 h, read-out: HCT116 IC50 (nM)), 2 nM; in series [4] (setting [10]), 5 nM. The metabolized in series [5] was < 10%.

With `C=C(c1ccc(OC)c(F)c1)c1nc(C)nc2ccccc12` [Compound I-5, 4-[1-(3-Fluoro-4-methoxy-phenyl)-vinyl]-2-methyl-quinazoline], the IC50 was 1000 nM in series [1] (setting [6]), < 20 nM in series [3] (setting [8]) and 18 nM in series [3] (setting [9]).

Regarding `COc1ccc(C(C)c2nc(C)nc3ccccc23)cc1` (stereo not drawn) [II-1, 4-[1-(4-Methoxy-phenyl)-ethyl]-2-methyl-quinazoline], the IC50 in series [3] (setting [9]) was 250 nM.

Regarding `C=C(c1cc(OC)c(OC)c(OC)c1)c1nc(Cl)nc2ccccc12` [Compound I-12, 2-Chloro-4-[1-(3,4,5-trimethoxy-phenyl)-vinyl]-quinazoline], the melting point is 135 to 136 °C. In addition, the IC50 in series [3] (setting [9]) is 900 nM.

Regarding `C=C(c1ccc(OC)c(N)c1)c1nc(C)nc2ccccc12` [Compound I-7, 2-Methoxy-5-(1-(2-methylquinazolin-4-yl)vinyl)aniline], the IC50 in series [1] (setting [6]) is 2300 nM; in series [3] (setting [8]), < 20 nM; in series [3] (setting [9]), 10 nM.

For `C=C(c1ccc(OC)cc1)c1nc(C)cc2ccccc12` [Compound I-18, 1-(1-(4-Methoxyphenyl)vinyl)-3-methylisoquinoline], the IC50 in series [3] (setting [9]) turned out to be 87 nM.

Broadly, the IC50 is the concentration that inhibits the measured activity by half. As usually defined, the melting point is the temperature, or range, at which the solid turns liquid.
